Results: patent US8637510B2, “Morpholinothiazoles as alpha 7 positive allosteric modulators” (Janssen Pharmaceutica NV, priority 2009, dated 2014)

Molecular target: T1, human alpha 7-wt nAChR (Homo sapiens, UniProt P36544)
T1 construct: expressed in transfected cells
Assay: Ca2+ flux imaging (FDSS) (Protocol B)
Type: cell-based
Details: for Emax: efficacy of 100 μM choline defined as 100% in the absence of a PAM, read-out: a7-PAM-G_[33]_Eff_Curve_FI % Efficacy; for EC50: potentiation of 100 μM choline, compounds 0.01 μM to 30 μM, read-out: a7-PAM-G_[33]_pEC50 pEC50 (converted)
Description: Ca^2+ Flux Imaging (FDSS) (Protocol B)
• Hanks buffered saline solution (HBSS, Invitrogen, Belgium), supplemented with 10 mM HEPES (Invitrogen, Belgium), CaCl2 to a final concentration of 5 mM, 0.1% Bovine serum albumin (Sigma-Aldrich NV, Belgium). b) Calcium-Sensitive Dye—Fluo-4AM • Fluo-4AM (Molecular Probes, USA) was dissolved in DMSO containing 10% Pluronic acid (Molecular Probes, USA) to give a stock solution which was diluted in assay buffer supplemented with 5 mM probenicid (Sigma, Aldrich NV, Belgium) to give a final concentration of 2 μM. c) 384-Well Plates • Black-sided, transparent bottomed 384 well plates coated with poly-D-lysine, PDL pre-coated (Corning, Incorporated, USA) d) Calcium Flux Measurement • A Functional drug screening system (FDSS, Hamamatsu) was used to measure intracellular free-calcium flux signals. Method
Monolayers of human alpha 7-wt nAChR-expressing cells were grown in black-sided, transparent bottomed 384 well plates coated with PDL for 24 hours prior to loading with a fluorescent calcium indicator, fluo-4AM for up to 120 minutes.
PAM activity was detected in real time by applying the compounds to be tested to the loaded cells along with an alpha 7 nicotinic receptor agonist during constant monitoring of cellular fluorescence in a FDSS. Compounds giving peak fluorescent responses greater than the response due to agonist alone, were considered to be alpha 7 nAChR PAMs. The alpha 7 nicotinic receptor agonist was choline, applied at a sub-maximal concentration of 100 μM. In a further setting of the present invention the compounds were applied prior to the alpha 7 nicotinic receptor agonist, in a particular 10 minutes prior to the agonist.
A control response to choline was calculated on each plate from the difference in peak in fluorescence in wells receiving either choline or assay buffer alone. Compounds of the present invention were tested at a concentration range from 0.01 μM to 30 μM. Compounds were considered to have an interesting activity when they potentiated the choline signal at least with 200% when tested at a concentration of 30 μM (the efficacy of 100 μM choline was defined as 100% in the absence of a PAM). An EC50 (or pEC50) was determined as a concentration relating to half the maximal effect, when a clear sigmoidal curve with top plateau was obtained.

T1 sequence (P36544 23-502): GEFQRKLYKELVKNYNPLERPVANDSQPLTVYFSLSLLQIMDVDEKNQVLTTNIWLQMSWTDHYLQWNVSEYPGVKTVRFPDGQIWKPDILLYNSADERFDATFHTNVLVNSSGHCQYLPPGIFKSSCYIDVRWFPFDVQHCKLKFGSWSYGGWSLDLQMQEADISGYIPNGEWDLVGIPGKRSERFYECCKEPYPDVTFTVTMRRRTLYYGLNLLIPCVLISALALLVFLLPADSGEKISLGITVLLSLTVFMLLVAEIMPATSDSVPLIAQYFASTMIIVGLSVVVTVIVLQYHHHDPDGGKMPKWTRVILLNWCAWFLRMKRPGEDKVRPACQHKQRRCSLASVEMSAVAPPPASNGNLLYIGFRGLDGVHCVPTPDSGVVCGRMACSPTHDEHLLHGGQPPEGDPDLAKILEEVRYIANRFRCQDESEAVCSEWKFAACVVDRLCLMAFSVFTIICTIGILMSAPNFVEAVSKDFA

SMILES	Emax [%]	EC50 [nM]
Cc1cc(-c2sc(N3C[C@@H](C)O[C@@H](C)C3)nc2CNC(=O)C(C)C)cc(C2CC2)n1 [Compound 108, N-[[5-(2-cyclopropy1-6-methyl-4-pyridinyl)-2-[(2R,6S)-2,6-dimethyl-4-morpholinyl]-4-thiazolyl]methyl]-2-methyl-propanamide]	764	72.4
Cc1cc(-c2sc(N3C[C@@H](C)O[C@@H](C)C3)nc2CNC(=O)C2CC2)cc(C2CC2)n1 [Compound 109, N-[[5-(2-cyclopropy1-6-methyl-4-pyridinyl)-2-[(2R,6S)-2,6-dimethyl-4-morpholinyl]-4-thiazolyl]methyl]-cyclopropanecarboxamide]	826	224
Cc1cc(-c2sc(N3C[C@@H](C)O[C@@H](C)C3)nc2CNC(=O)CC(C)C)cc(C2CC2)n1 [Compound 110, N-[[5-(2-cyclopropy1-6-methyl-4-pyridinyl)-2-[(2R,6S)-2,6-dimethyl-4-morpholinyl]-4-thiazolyl]methyl]-3-methyl-butanamide]	957	12.3
CC(C)C(=O)NCc1nc(N2CCOCC2)sc1-c1ccncc1 [Compound 115, 2-methyl-N-[[2-(4-morpholinyl)-5-(4-pyridinyl)-4-thiazolyl]methyl]-propanamide]	230	9330
Cc1cc(-c2sc(N3C[C@@H](C)O[C@@H](C)C3)nc2CNC(=O)c2cc(C3CC3)on2)cc(C)n1 [Compound 127, 5-cyclopropyl-N-[[2-[(2R,6S)-2,6-dimethyl-4-morpholinyl]-5-(2,6-dimethyl-4-pyridinyl)-4-thiazolyl]methyl]-3-isoxazolecarboxamide]		692
Cc1cc(-c2sc(N3C[C@@H](C)O[C@@H](C)C3)nc2CNC(=O)CCC(F)(F)F)cc(C)n1 [Compound 128, N-[[2-[(2R,6S)-2,6-dimethyl-4-morpholinyl]-5-(2,6-dimethyl-4-pyridinyl)-4-thiazolyl]methyl]-4,4,4-trifluoro-butanamide]		51.3
Cc1cc(-c2sc(N3C[C@@H](C)O[C@@H](C)C3)nc2CNC(=O)c2cc(C)nn2C(C)(C)C)cc(C)n1 [Compound 129, 1-(1,1-dimethylethyl)-N-[[2-[(2R,6S)-2,6-dimethyl-4-morpholinyl]-5-(2,6-dimethyl-4-pyridinyl)-4-thiazolyl]methyl]-3-methyl-1H-pyrazole-5-carboxamide]		912
Cc1cc(-c2sc(N3C[C@@H](C)O[C@@H](C)C3)nc2CNC(=O)c2cc(C)n(C)n2)cc(C)n1 [Compound 131, N-[[2-[(2R,6S)-2,6-dimethyl-4-morpholinyl]-5-(2,6-dimethyl-4-pyridinyl)-4-thiazolyl]methyl]-1,5-dimethyl-1H-pyrazole-3-carboxamide]	462	

The next lines start with the values.

Emax [%]	EC50 [nM]	SMILES
356		Cc1ccc(-c2sc(N3C[C@@H](C)O[C@@H](C)C3)nc2CNC(=O)c2ccccc2F)cn1 [Compound 124, N-[[2-[(2R,6S)-2,6-dimethyl-4-morpholinyl]-5-(6-methyl-3-pyridinyl)-4-thiazolyl]methyl]-2-fluoro-benzamide]
	309	Cc1cc(-c2sc(N3C[C@@H](C)O[C@@H](C)C3)nc2CNC(=O)c2noc3ccccc23)cc(C)n1 [Compound 130, N-[[2-[(2R,6S)-2,6-dimethyl-4-morpholinyl]-5-(2,6-dimethyl-4-pyridinyl)-4-thiazolyl]methyl]-1,2-benzisoxazole-3-carboxamide]
	537	Cc1cc(-c2sc(N3C[C@@H](C)O[C@@H](C)C3)nc2CNC(=O)c2cc(C(C)C)on2)cc(C)n1 [Compound 135, N-[[2-[(2R,6S)-2,6-dimethyl-4-morpholinyl]-5-(2,6-dimethyl-4-pyridinyl)-4-thiazolyl]methyl]-5-(1-methylethyl)-3-isoxazolecarboxamide]
	1950	Cc1cc(-c2sc(N3C[C@@H](C)O[C@@H](C)C3)nc2CNC(=O)c2cc(C)nn2C)cc(C)n1 [Compound 136, N-[[2-[(2R,6S)-2,6-dimethyl-4-morpholinyl]-5-(2,6-dimethyl-4-pyridinyl)-4-thiazolyl]methyl]-1,3-dimethyl-1H-pyrazole-5-carboxamide]
